We go through 16 molecules from ChEMBL document CHEMBL5214919, “Discovery of Novel BRD4 Ligand Scaffolds by Automated Navigation of the Fragment Chemical Space” (J Med Chem, 2021).

Broadly, the ΔTm is the change in melting temperature against a reference sample. In general, IC50 refers to the concentration at which inhibition is half-maximal. The low end stands for greater potency in that assay, the high end for weaker potency in that assay.

Test [1] addresses T1, Bromodomain-containing protein 4 (Homo sapiens, UniProt O60885). Put plainly: Binding affinity to BRD4 (unknown origin) expressed in Escherichia coli BL21 (DE3) assessed as thermal stabilization at 10 uM by SYPRO orange dye based DSF assay.
Test [2] addresses T1, Bromodomain-containing protein 4. Kind of test: Inhibition of BRD4 (unknown origin) expressed in Escherichia coli BL21 (DE3) using [Lys(Ac)5/8/12/16]-histone H4 (1 to 21residues)-GGK as substrate incubated for 30 mins by TR-FRET assay. Background: In TR-FRET formats the signal depends on donor and acceptor labels being close together.

For `CCCc1nnc(NC(=O)c2c(C)noc2C)s1`, the ΔTm in test [1] was determined as 0.9 °C. Same read-out and setting: as for `Cc1nnc2n1C[C@@H](NC(=O)Cn1cnnn1)CC2`, the figure is 2.9 °C. In the case of `Oc1ccc(Cl)cc1Nc1ncnc2nc[nH]c12`, the ΔTm in test [1] was 2.4 °C. In test [2], this molecule returned a concentration for half-maximal inhibition (IC50) of 491 µM. As for `CCc1nnc2scc(-c3ccccc3)n12`, in test [1], the ΔTm was 3.3 °C. As for `Cc1noc(C)c1CSc1nnc(C)n1N`, the IC50 in test [2] amounted to 191 µM. Same read-out and setting: with `Cc1noc(C)c1C(=O)Nc1nnc(C2CC2)s1` the figure was 86 µM. Turning to `Cc1cc(SCc2c(C)noc2C)ncn1`, the thermal shift (ΔTm) in test [1] stood at 1.8 °C. The molecule further yielded a half-maximal inhibitory concentration (IC50) in test [2] of 30 µM. With `Cc1nonc1-c1cc2ccccc2[nH]1`, the ΔTm in test [1] turned out to be 2.6 °C. Still for that read-out and setting: with `Nc1noc2c1c(=O)[nH]c1ccccc12` the figure was 3.1 °C. Regarding `Cc1cc(Cl)ccc1O[C@H](C)c1nnc(N)s1`, the ΔTm in test [1] was found to be 0.8 °C. Moreover, inhibition in test [2] was half-maximal at 79 µM (IC50). On to `Cc1noc(N)c1-c1ccccc1`, for which the ΔTm in test [1] was found to be 4.55 °C. Further, half-maximal inhibition in test [2] (IC50) was put at 91 µM. `Oc1ccccc1-n1c(O)nnc1S` gave an IC50 in test [2] of 644 µM. Take `COc1ccc(CNC(=O)CSc2nnc(N)s2)cc1`: the thermal shift (ΔTm) in test [1] amounted to 0.9 °C. On the same count and under the same terms, with `COc1cccc(Cc2nnc(N)s2)c1` the figure was 1.6 °C; with `Cc1n[nH]c2nnc(N)c-2c1C`, 0.9 °C; with `Cc1nc(C#N)c(NCc2csnn2)o1`, 3.4 °C.
